Source: US12144815B2, “Use of aprepitant for treating Alzheimer's disease” (Hoth Therapeutics, Inc., priority 2021, dated 2024)

Tests used:
[1] = test system: brain interstitial fluid (ISF) Aβ; assay: In vivo microdialysis of brain interstitial fluid (ISF) Aβ with Aβ sandwich ELISA; details: APP/PS1+/− mice, 40 mg/kg oral gavage
Description: In vivo microdialysis was utilized to measure the basal concentration of ISF Aβ in each mouse, followed by administration via oral gavage of 40 mg/kg dose of aprepitant or vehicle (corn oil) and continued measurement of Aβ over 24 hours.
Three-four month old APP/PS1^+/− mice were implanted with unilateral guide cannula above the hippocampus followed by insertion of microdialysis probes (see, for example, In Vivo AβMicrodialysis of Example 7). Each animal recovered for 3 days between guide cannula implantation and start of microdialysis. Littermate females and males were separated randomly into each treatment group. Throughout each microdialysis study, mice were housed in special RaTurn caging systems to provide freedom of movement and ad lib food and water while the microdialysis equipment was attached. […]
Following drug administration, ISF was measured every 60 minutes for 24 hours. […] ISF APβ was immediately measured at the end of each study by Aβ sandwich ELISA. […]
In Vivo Aβ Microdialysis. […] Samples were collected every 60 or 90 minutes into a refrigerated fraction collector (Univentor Limited) in polypropylene tubes and assessed for […] by sandwich ELISA. […]
Aβ Sandwich ELISA. ISF Aβx-40 levels were measured using sandwich ELISAs as described (Hettinger et al., 2018). […]

APP/PS1 mice = assay: Morris Water Maze test of spatial learning and memory; type: in vivo; details: 3 weeks oral treatment
Description: A Morris Water Maze test was used to evaluate spatial learning and memory after 3 weeks treatment with oral aprepitant or vehicle in APP/PS1 or wild type (WT) mice.
Animal Model. All experiment protocols using animals were performed ethically and in accordance with the guidelines established by the Institutional Animal Care and Use Committee at Washington University. APPswe/PS1DE9 hemizygous mice (Jackson Laboratory, RRID: MMRRC_034829.JAX) (Savonenko et al., 2003) were bred to wild type C3H/B6 mice and aged the APP/PS1^+/− offspring to 2-3.5 months for microdialysis experiments or aged to 9 months for behavioral testing. Males and females were included in each group; aprepitant treated mice n=20 (11 males, 9 females), Vehicle treated mice […] for microdialysis experiments. […]
Morris water maze (MWM) test. […] The PVC escape platform measured 11.5 cm in diameter. A digital video camera connected to a PC computer and the computer software program ANY-maze (Stoelting Co., Wood Dale, IL) tracked the swimming pathway of the mouse to the escape platform and quantified path length, latency to find escape platform, and swimming speeds. […]

Structure (SMILES): C[C@H](O[C@@H]1OCCN(Cc2n[nH]c(=O)[nH]2)[C@H]1c1ccc(F)cc1)c1cc(C(F)(F)F)cc(C(F)(F)F)c1 [aprepitant]
- average ISF Aβ levels post gavage compared to vehicle treated mice ([1]; Bonferroni post hoc, p=0.0002): significantly lower
- ISF Aβ levels, change from baseline (within group) ([1]; hippocampal ISF measured over 24 hours, p <0.0001, vehicle (corn oil) mice did not decrease (p=0.4003)): significantly decreased from their baseline
- spatial memory for the platform location (time spent in the target quadrant, probe trial) (APP/PS1 mice; compared to vehicle-treated APP/PS1 mice, preliminary data): trend for improved memory
- spatial learning (path length, learning trials) (APP/PS1 mice; n=4 vs vehicle n=3, preliminary data, trend): improved spatial learning
